The record followed here is US8134015B2, “Compound inhibiting in vivo phosphorous transport and medicine containing the same” (Kyowa Hakko Kirin Co., Ltd., priority 2003, dated 2012).

Molecules are shown by their SMILES. Some results are limits rather than exact numbers.

One experiment concerns the target T1, rat NaPi-2b (Rattus norvegicus, UniProt Q9JJ09).
T1 construct: expressed in transfected cells; host or cells: Xenopus oocytes injected with cRNA
T1 sequence (Q9JJ09 1-695): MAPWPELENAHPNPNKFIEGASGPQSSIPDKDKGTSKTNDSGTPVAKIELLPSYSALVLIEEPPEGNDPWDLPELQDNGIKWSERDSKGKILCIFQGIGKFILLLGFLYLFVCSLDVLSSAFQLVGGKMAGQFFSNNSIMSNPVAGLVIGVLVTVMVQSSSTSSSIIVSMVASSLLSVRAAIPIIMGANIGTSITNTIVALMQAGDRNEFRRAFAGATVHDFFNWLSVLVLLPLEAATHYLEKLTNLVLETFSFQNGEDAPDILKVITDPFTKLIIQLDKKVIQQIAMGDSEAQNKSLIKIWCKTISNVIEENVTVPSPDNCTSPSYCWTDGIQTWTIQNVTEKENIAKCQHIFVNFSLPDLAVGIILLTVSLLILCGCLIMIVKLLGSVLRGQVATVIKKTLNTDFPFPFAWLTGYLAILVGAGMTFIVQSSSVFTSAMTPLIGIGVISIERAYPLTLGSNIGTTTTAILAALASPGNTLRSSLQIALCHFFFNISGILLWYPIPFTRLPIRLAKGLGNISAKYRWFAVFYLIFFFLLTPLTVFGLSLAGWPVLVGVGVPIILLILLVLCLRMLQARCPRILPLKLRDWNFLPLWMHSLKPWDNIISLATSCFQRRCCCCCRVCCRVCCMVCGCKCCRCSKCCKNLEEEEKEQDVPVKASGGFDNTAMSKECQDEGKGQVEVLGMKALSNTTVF
In words: Sodium-dependent phosphate uptake of Xenopus oocytes which expressed NaPi-2b (32P). Type of experiment: cell-based. The settings on record: Xenopus oocytes expressing rat NaPi-2b, 32P radioactive phosphorus; read-out: IC50 (phosphate uptake inhibitory activity). Put shortly:
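Percent inhibition at 300 μM and 100 μM comes from the same inhibition curve of 32P uptake. Assay used oocytes expressing rat NaPi-2b after 2 days of culture.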

Another experiment deals with T2, human NaPi-2a (Homo sapiens, UniProt Q06495).
T2 construct: expressed in transfected cells
T2 sequence (Q06495 1-639): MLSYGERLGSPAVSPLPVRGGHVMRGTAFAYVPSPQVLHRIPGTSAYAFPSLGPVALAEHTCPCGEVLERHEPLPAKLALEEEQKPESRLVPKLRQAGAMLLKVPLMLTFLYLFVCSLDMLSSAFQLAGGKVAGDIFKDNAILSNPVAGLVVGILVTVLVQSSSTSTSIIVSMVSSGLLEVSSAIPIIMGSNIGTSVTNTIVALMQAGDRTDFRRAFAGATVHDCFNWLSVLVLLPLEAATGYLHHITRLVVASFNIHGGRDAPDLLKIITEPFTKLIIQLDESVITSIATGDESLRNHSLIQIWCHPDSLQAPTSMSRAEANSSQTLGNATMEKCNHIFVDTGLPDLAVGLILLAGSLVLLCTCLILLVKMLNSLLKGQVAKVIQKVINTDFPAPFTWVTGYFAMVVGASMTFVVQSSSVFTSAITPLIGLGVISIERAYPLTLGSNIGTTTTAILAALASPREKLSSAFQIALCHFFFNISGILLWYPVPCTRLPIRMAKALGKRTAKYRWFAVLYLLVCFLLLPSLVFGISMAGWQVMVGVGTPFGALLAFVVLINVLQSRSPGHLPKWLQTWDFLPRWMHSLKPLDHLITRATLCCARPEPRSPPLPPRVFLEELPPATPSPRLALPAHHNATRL
In words: Sodium-dependent phosphate uptake of Xenopus oocytes which expressed NaPi-2a (32P). It is filed as cell-based. The settings on record: phosphate uptake, Xenopus oocytes expressing human NaPi-2a; five concentration levels. The text has this: Experiment of Sodium-Dependent Phosphate Uptake of Xenopus oocytes which Expressed NaPi-2a
In the test, a group with the addition of choline chloride (Choline Cl) was used as a negative control for nonspecific uptake, and PFA (phosphonoformic acid) was used as a positive control for phosphate transport inhibition.

Consider `COc1ccc(/C=N/NC(=O)c2c(C)csc2NC(=O)c2cccc(CN3CCN(c4ncccn4)CC3)c2)cc1` [Compound 831, N-[3-(4-Methoxy-benzylidene-hydrazinocarbonyl)-4-methyl-thiophen-2-yl]-3-(4-pyrimidin-2-yl-piperazin-1-ylmethyl)-benzamide], for which the values for the IC50 on rat NaPi-2b and at human NaPi-2a were 3880 nM and 28.8 µM, respectively.
The matching figures for `COc1ccc(/C=N/NC(=O)c2c(NC(=O)c3cccc(CN4CCC(O)CC4)c3)sc3c2CCCC3)cc1` [Compound 638, 3-(4-Hydroxy-piperidin-1-ylmethyl)-N-[3-(4-methoxy-benzylidene-hydrazinocarbonyl)-4,5,6,7-tetrahydro-benzo[b]thiophen-2-yl]-benzamide]: 3150 nM and 4.22 µM.
On the same counts, the results for `O=C(Nc1ccc(N2CCCCC2)cc1C(=O)N/N=C/c1cccc(F)c1)c1cccc(CN2CCc3nc4ncccc4cc3C2)c1` [Compound 896, 3-(7,8-Dihydro-5H-1,6,9-triaza-anthracen-6-ylmethyl)-N-[2-(3-fluoro-benzylidene-hydrazinocarbonyl)-4-piperidin-1-yl-phenyl]-benzamide] are < 300 nM and 7.4 µM.
In the case of `Cc1ccc(/C=N/NC(=O)c2cc(N3CCCCC3)ccc2NC(=O)c2cccc(CSCCO)c2)cc1` [Compound 881, 3-(2-Hydroxy-ethylsulfanylmethyl)-N-[2-(4-methyl-benzylidene-hydrazinocarbonyl)-4-piperidin-1-yl-phenyl]-benzamide], the IC50 came out at 180 nM on rat NaPi-2b and 2.67 µM at human NaPi-2a.
On the same counts, the results for `Cc1ccc(/C=N/NC(=O)c2cc(N3CCCCC3)ccc2NC(=O)c2cccc(CN3CCN(CCO)CC3)c2)cc1C` [Compound 864, N-[2-(3,4-Dimethyl-benzylidene-hydrazinocarbonyl)-4-piperidin-1-yl-phenyl]-3-[4-(2-hydroxy-ethyl)-piperazin-1-ylmethyl]-benzamide] are 740 nM and 1.94 µM.
For the compound `CCN(CC)CCN(C)Cc1cccc(C(=O)Nc2ccc(N3CCCCC3)cc2C(=O)N/N=C/c2ccc(C)c(C)c2)c1` [Compound 858, 3-{[(2-Diethylamino-ethyl)-methyl-amino]-methyl}-N-[2-(3,4-dimethyl-benzylidene-hydrazinocarbonyl)-4-piperidin-1-ylphenyl]-benzamide], the IC50 on rat NaPi-2b was 460 nM; against human NaPi-2a, < 1 µM.
The matching figures for `Cc1csc(NC(=O)c2cccc(CN3CCC4(CC3)OCCO4)c2)c1C(=O)N/N=C/c1cccc(F)c1` [Compound 835, 3-(1,4-Dioxa-8-aza-spiro[4,5]dec-8-ylmethyl]-N-[3-(3-fluoro-benzylidene-hydrazinocarbonyl)-4-methyl-thiophen-2-yl]-benzamide]: 6460 nM and 11 µM.
In the case of `CCN(CC)CCN(CCN(CC)CC)Cc1cccc(C(=O)Nc2scc(C)c2C(=O)N/N=C/c2cccc(F)c2)c1` [Compound 841, 3-{[Bis-(2-diethylamino-ethyl)-amino]-methyl}-N-[3-(3-fluoro-benzylidene-hydrazinocarbonyl)-4-methyl-thiophen-2-yl]-benzamide], the IC50 was < 3000 nM at rat NaPi-2b and 19.9 µM against human NaPi-2a.
For `CCN(CC)CCN(C)Cc1cccc(C(=O)Nc2ccc(OCCOC)cc2C(=O)N/N=C/c2ccc(Cl)c(C(F)(F)F)c2)c1` [Compound 1027, N-[2-(4-Chloro-3-trifluoromethyl-benzylidene-hydrazinocarbonyl)-4-(2-methoxy-ethoxy)-phenyl]-3-{[(2-diethylamino-ethyl)-methyl-amino]-methyl}-benzamide], the IC50 at rat NaPi-2b worked out at 1200 nM; against human NaPi-2a it was 1.58 µM.
On the same counts, the results for `CC(O)CN(Cc1cccc(C(=O)Nc2ccc(F)cc2C(=O)N/N=C/c2cccc(F)c2)c1)CC(C)O` (stereo not drawn) [Compound 987, 3-{[Bis-(2-hydroxy-propyl)-amino]-methyl}-N-[4-fluoro-2-(3-fluoro-benzylidene-hydrazinocarbonyl)-phenyl]-benzamide] are < 3000 nM and 16.3 µM.
Take `Cc1ccc(/C=N/NC(=O)c2c(C)csc2NC(=O)c2cccc(CN3CCC4(CC3)OCCO4)c2)cc1` [Compound 833, 3-(1,4-Dioxa-8-aza-spiro[4,5]dec-8-ylmethyl]-N-[4-methyl-3-(4-methyl-benzylidene-hydrazinocarbonyl)-thiophen-2-yl]-benzamide]: the IC50 on rat NaPi-2b turned out to be 7890 nM; against human NaPi-2a, 38.1 µM.
`CC(O)CN(Cc1cccc(C(=O)Nc2sc3ccccc3c2C(=O)N/N=C/c2cccc(F)c2)c1)CC(C)O` (stereo not drawn) [Compound 795, 3-{[Bis-(2-hydroxy-propyl)-amino]-methyl}-N-[3-(3-fluoro-benzylidene-hydrazinocarbonyl)-benzo[b]thiophen-2-yl]-benzamide]: the results for the IC50 at rat NaPi-2b and at human NaPi-2a were 1920 nM and 8.52 µM, respectively.
The matching figures for `Cc1ccc(/C=N/NC(=O)c2cc(N3CCCCC3)ccc2NC(=O)c2cccc(CSCC(O)CO)c2)cc1` (stereo not drawn) [Compound 900, 3-(2,3-Dihydroxy-propylsulfanylmethyl)-N-[2-(4-methyl-benzylidene-hydrazinocarbonyl)-4-piperidin-1-yl-phenyl]-benzamide]: < 1000 nM and 2.53 µM.
On the same counts, the results for `O=C(Nc1sc2c(c1C(=O)N/N=C/c1ccc(F)cc1)CCCC2)c1cccc(CN2CCC(O)CC2)c1` [Compound 635, N-[3-(4-Fluoro-benzylidene-hydrazinocarbonyl)-4,5,6,7-tetrahydro-benzo[b]thiophen-2-yl]-3-(4-hydroxy-piperidin-1-ylmethyl)-benzamide] are 1560 nM and 1.34 µM.
On the same counts, the results for `Cc1csc(NC(=O)c2cccc(CN(CCO)CCO)c2)c1C(=O)N/N=C/c1cccc(F)c1` [Compound 789, 3-{[Bis-(2-hydroxy-ethyl)-amino]-methyl}-N-[3-(3-fluoro-benzylidene-hydrazinocarbonyl)-4-methyl-thiophen-2-yl]-benzamide] are 1160 nM and 9.28 µM.
Turning to `Cc1ccc(/C=N/NC(=O)c2c(C)csc2NC(=O)c2cccc(CN3CCN(c4ncccn4)CC3)c2)cc1` [Compound 827, N-[4-Methyl-3-(4-methyl-benzylidene-hydrazinocarbonyl)-thiophen-2-yl]-3-(4-pyrimidin-2-yl-piperazin-1-ylmethyl)-benzamide], the IC50 on rat NaPi-2b was determined as 3500 nM; against human NaPi-2a, 24.4 µM.
The matching figures for `Cc1csc(NC(=O)c2cccc(CN(C)C)c2)c1C(=O)N/N=C/c1ccc(Cl)c(C(F)(F)F)c1` [Compound 824, N-[3-(4-Chloro-3-trifluoromethyl-benzylidene-hydrazinocarbonyl)-4-methyl-thiophen-2-yl]-3-dimethylaminomethyl-benzamide]: 3220 nM and 8.19 µM.
On to `CCN(CC)CCN(C)Cc1cccc(C(=O)Nc2ccc(N3CCCCC3)cc2C(=O)N/N=C/c2ccc(F)cc2)c1` [Compound 860, 3-{[(2-Diethylamino-ethyl)-methyl-amino]-methyl}-N-[2-(4-fluoro-benzylidene-hydrazinocarbonyl)-4-piperidin-1-yl-phenyl]-benzamide], for which the IC50 on rat NaPi-2b was 650 nM; on human NaPi-2a, < 1 µM.
